Results published in patent publication US12304910B2, “Janus kinase (JAK) family inhibitor, preparation of same, and applications thereof” (JIANGSU VCARE PHARMATECH CO., LTD., priority 2019, dated 2025).

What was measured:
[1] = system: DNBS induced rat Crohn's disease model; experiment: Therapeutic activity in DNBS induced rat Crohn's disease model; assay type: in vivo; set-up: rat colon ulcer area: unit not given beside the values; conditions: G3, 10 mg/kg-QD, 7 days, mean±SD
Method: Male wistar rats of 4-5 weeks old were adaptively fed for 5 days, and two days before the experiment, randomly divided into 6 groups:
Blank control group: G1 (Normal), 4 normal rats were selected and only given with 30% ethanol, 10 mL/kg.
0.5 mL of 50 mg/mL DNBS (DNBS dissolved in 30% ethanol) was injected into the colon of rats to induce enteritis in rats, for 40 rats in total. Eight of them were selected as model group G2 (Model), and the remaining 32 rats were administrated.
Administration group: the rats with DNBS induced enteritis were administered with ABT494 and the compound of Example 2 respectively and divided into G3-G6 groups, 8 rats/group. G3: ABT494, 10 mg/kg-QD; G4: Example 2, 0.3 mg/kg-BID; G5: Example 2, 1 mg/kg-BID; and G6: Example 2, 3 mg/kg-BID.
The rats were fasted, but fed with water for 48 hours, and a 5% glucose salt solution (10 mL/kg) was used as an energy supplement for experimental animals during the fasting period, once a day. On the day of experimental modeling, the fasting rats were anesthetized with Choutet (25 mg/kg), and then 0.5 mL of 50 mg/mL DNBS was injected from the anus to left colic flexure of the rat (about 8 cm to the anus) to induce rat enteritis. All rats were kept in a […] for 15 min until they were awaken, to prevent the backflow of DNBS. From the day of the experimental modeling, medication was given for 7 days.
After the DNBS modeling, the weights of the animals were measured and recorded every day, the daily activities of the animals were observed, and the abnormalities were recorded. During the experiment, the stool state of the rats was scored every day. On day 7, the rats were anesthetized with isoflurane (3-5%), blood was taken from the orbit, and the serum was separated and stored at −80° C. All animals were euthanized by cervical vertebra dis location after suffocation from excessive CO2 inhalation. The abdomen was cut, the colorectum was take out and longitudinally dissected, and the stool trait in the colorectum was scored. The colorectum was thoroughly rinsed with ice-cold PBS and then the ulcer surface was observed. The length and weight and ulcer area of the colon were recorded, the weight-length ratio (colon weight (g)/length (cm) ratio×100) was calculated, and the overall picture was taken. All intestinal tissue was longitudinally divided into two parts, where one part was fixed with 4% neutral […] and embedded with paraffin, and the rest colon sample was cryopreserved at −80° C.
Excel and Graphapad software were used for statistical analysis, and the results were expressed as mean±SD.

JAK3 = target: T1, JAK3 (Homo sapiens, UniProt P52333); experiment: Kinase activity test (γ33P-ATP isotopic method), JAK3; assay type: biochemical; conditions: 33P-ATP 10 μM, 2 h reaction
T1 sequence (P52333 1-1124): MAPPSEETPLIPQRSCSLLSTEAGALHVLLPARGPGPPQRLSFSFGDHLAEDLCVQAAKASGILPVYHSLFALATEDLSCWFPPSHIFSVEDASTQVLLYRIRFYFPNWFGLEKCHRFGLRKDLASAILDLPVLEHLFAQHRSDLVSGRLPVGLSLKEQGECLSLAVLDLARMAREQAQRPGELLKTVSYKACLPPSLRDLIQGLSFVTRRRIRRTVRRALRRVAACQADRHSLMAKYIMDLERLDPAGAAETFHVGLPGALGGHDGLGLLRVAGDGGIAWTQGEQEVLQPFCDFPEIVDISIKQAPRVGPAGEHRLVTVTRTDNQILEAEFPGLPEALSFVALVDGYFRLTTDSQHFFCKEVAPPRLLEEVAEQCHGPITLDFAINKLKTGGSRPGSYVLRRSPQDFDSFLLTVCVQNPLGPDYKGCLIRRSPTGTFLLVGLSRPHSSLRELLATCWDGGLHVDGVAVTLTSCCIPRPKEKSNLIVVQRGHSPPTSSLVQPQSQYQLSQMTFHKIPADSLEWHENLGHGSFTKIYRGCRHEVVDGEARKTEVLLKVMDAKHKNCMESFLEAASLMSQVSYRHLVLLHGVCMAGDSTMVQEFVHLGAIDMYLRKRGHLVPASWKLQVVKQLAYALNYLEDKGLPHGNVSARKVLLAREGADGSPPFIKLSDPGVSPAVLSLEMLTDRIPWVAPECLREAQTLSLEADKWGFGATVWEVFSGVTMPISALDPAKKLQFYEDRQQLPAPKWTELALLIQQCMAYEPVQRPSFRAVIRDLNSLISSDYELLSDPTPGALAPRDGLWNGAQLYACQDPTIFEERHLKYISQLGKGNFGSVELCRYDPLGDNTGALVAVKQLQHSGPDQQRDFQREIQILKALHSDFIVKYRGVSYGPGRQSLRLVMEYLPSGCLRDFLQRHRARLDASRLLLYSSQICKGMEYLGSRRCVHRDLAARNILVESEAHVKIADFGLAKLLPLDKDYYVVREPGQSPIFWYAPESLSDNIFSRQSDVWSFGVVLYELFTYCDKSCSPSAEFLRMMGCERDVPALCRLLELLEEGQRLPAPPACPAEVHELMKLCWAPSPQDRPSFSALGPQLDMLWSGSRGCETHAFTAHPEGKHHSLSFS
Method: (§1) This experiment adopted a γ^33p-ATP isotopic test method to test the inhibitory effect of a compound on kinases JAK1, JAK2, JAK3 and TYK2, and obtained a half inhibitory concentration IC50 of the compound for inhibiting activity of the kinase.
(§2) 20 mM 4-hydroxyethylpiperazine ethanesulfonic acid buffer (Hepes, pH 7.5), 10 mM magnesium chloride (MgCl2), 1 mM ethylene glycol diethyl ether diamine tetraacetic acid (EGTA), 0.02% dodecyl polyethylene glycol ether (Brij35), 0.02 mg/ml bovine serum albumin (BSA), 0.1 mM sodium vanadate (Na3VO4), 2 mM dithiothreitol (DTT), and 1% dimethylsulfoxide (DMSO).
(§3) A compound is dissolved with 100% DMSO to a specific concentration, and then subjected to gradient dilution by an automatic sampling device to obtain the samples to be tested with different concentrations (DMSO solutions).
(§4) 3.1 diluting the reaction substrate with the basic reaction buffer;
(§5) 3.2 adding the kinase into the substrate solution, and gently mixing well;
(§6) 3.3 adding, by the automatic sampling system, the 100% DMSO diluted compounds with different concentrations into the kinase solution, and incubating for 20 min at room temperature; and
(§7) 3.4 adding ^33p-ATP (10 μM, 10 μCi/μl) at room temperature to initiate the kinase reaction for a duration of 2 h.
(§8) The unreacted ATP and the reaction-generated […] in the reaction were removed by an ion exchange filtering system, and then the amount of radioactivity of ^33p isotope in the substrate was detected.
(§9) According to the amount of radioactivity, the kinase activities in the systems added with the inhibitors of different concentrations were calculated, to obtain the inhibitors' effects of the compounds of different concentrations on the kinase activity; and fitting was performed with graphpad prism to obtain the inhibitory IC50 values of the compounds.

JAK1 = JAK1 (Homo sapiens, UniProt P23458); experiment: Kinase activity test (γ33P-ATP isotopic method), JAK1; assay type: biochemical; conditions: for IC50: 33P-ATP 10 μM, 2 h reaction; for activity in inhibiting the JAK1 kinase compared with Tofacitinib (in words): conclusion from Table 1
Chain of JAK1 (P23458 whole entry): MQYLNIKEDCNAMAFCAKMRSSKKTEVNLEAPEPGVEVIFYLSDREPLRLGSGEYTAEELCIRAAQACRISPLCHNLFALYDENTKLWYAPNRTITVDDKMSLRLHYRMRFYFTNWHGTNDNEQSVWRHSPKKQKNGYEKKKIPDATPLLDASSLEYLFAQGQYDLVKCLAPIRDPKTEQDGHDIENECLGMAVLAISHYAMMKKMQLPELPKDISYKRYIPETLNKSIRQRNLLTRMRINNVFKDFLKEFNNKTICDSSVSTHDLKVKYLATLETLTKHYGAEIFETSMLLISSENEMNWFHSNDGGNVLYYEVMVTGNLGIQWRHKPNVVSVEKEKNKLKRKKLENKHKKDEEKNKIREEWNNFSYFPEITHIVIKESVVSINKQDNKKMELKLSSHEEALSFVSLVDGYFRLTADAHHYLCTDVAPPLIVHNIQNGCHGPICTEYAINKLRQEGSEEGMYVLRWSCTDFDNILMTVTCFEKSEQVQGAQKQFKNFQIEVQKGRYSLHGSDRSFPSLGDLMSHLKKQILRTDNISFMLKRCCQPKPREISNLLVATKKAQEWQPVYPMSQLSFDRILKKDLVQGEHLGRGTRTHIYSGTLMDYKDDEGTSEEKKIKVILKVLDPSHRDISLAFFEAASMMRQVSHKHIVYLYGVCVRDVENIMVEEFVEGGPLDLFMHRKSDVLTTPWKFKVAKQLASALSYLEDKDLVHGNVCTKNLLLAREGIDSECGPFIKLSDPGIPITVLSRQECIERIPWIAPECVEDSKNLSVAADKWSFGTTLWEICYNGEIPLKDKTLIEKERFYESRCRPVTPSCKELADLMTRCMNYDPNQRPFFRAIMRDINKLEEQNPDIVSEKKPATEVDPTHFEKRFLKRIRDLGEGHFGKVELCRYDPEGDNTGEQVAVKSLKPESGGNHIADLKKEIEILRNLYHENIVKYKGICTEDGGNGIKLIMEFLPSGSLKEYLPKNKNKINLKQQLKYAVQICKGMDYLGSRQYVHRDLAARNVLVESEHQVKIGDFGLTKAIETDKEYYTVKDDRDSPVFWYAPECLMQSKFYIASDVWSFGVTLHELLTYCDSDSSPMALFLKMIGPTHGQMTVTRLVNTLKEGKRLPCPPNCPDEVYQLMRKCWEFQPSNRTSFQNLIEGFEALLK
Method: as §1, §2, §3, §4, §5, §6, §7, §8, §9

JAK2 = JAK2 (Homo sapiens, UniProt O60674); experiment: Kinase activity test (γ33P-ATP isotopic method), JAK2; assay type: biochemical; conditions: 33P-ATP 10 μM, 2 h reaction
Chain of JAK2 (O60674 whole entry): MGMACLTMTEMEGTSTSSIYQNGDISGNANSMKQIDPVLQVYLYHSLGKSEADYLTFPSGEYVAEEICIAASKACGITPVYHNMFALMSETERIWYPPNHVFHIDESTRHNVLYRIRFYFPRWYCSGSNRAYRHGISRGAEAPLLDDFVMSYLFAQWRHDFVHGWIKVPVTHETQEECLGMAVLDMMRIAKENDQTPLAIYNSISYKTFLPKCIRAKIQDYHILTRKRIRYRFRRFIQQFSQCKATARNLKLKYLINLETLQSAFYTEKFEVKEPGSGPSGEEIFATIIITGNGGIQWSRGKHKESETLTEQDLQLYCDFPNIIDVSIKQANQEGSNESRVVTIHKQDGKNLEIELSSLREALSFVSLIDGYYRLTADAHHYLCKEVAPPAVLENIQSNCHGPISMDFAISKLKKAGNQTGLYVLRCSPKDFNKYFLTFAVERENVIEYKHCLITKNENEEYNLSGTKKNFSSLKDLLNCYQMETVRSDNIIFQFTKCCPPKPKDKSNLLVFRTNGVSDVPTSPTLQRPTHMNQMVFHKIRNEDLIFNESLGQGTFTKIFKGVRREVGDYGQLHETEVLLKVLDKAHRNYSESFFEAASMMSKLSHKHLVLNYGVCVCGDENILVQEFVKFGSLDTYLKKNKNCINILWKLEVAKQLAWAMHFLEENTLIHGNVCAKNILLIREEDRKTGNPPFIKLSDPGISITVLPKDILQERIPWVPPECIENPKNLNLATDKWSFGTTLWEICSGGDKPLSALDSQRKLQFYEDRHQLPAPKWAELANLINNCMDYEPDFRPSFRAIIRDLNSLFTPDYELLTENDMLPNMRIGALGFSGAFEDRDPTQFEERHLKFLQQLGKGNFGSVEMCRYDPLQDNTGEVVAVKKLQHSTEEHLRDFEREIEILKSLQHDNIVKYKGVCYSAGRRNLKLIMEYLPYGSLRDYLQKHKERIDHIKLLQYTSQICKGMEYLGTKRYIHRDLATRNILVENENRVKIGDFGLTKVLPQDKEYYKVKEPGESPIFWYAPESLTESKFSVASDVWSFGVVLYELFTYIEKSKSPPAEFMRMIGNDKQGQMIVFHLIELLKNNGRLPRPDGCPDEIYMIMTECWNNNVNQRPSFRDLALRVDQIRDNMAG
Method: as §1, §2, §3, §4, §5, §6, §7, §8, §9

[2] = system: DSS induced mouse ulcerative colitis model; experiment: Efficacy test in DSS induced mouse ulcerative colitis model; assay type: in vivo; conditions: 100 mg/kg group, once a day, mouse DSS model, DAI range 0-4
Description: Mice of 6-7 weeks old were randomly grouped, 6 mice per group. Purified water was provided ad libitum to the mice in a negative control group, and a 2% solution of dextran sulfate sodium (DSS) was provided ad libitum to the mice in other groups, for 7 consecutive days. During the modeling, medication was given according to the groups, once a day for 7 days (the treatment groups and the mouse numbers can be adjusted according to the specific situation). Within 8-10 days later, the DSS-containing water was replaced with purified water, provided ad libitum to the mice. The normal administration continued for 3 days.
From the first day of administration, the general conditions such as metal state, eating, drinking and activities of the mice were respectively observed every day, the mice were weighed every day, and the animal stools were collected, evaluated for their traits and subjected to the occult blood test. The disease activity index (DAI) of experimental animals within 1-10 days were comprehensively assessed.
Scoring was performed according to the above-mentioned standards. The disease activity index (DAI) of each mouse was obtained by summing the scores of weight loss, stool trait and occult blood condition, to evaluate the disease activity. DAI=(score of weight loss+score of stool trait+score of bloody stool)/3, ranging from 0-4.
The experimental data was processed statistically, and the data are all expressed as mean±SD or mean±SME. The SPSS13.0 software was used for statistical analysis, and the differences among the groups were compared with t test (equal variance) or t′ test (unequal variance).

IC50 (JAK3)	IC50 (JAK1)	IC50 (JAK2)	Structure (SMILES)	colon weight-length ratio ([1]; colon weight (g)/length (cm) ratio×100, model group G2 14.6±5.1)	rat colon ulcer area ([1]; model group G2 1.54±2.00)	activity in inhibiting the JAK1 kinase compared with Tofacitinib (in words) (JAK1)	DAI score on day 8 [2]
9 nM	1.15 nM	41.2 nM	CC1CCC(C(=O)NCC(F)(F)F)CN1Nc1c(C(N)=O)cnc2[nH]ccc12 (stereo not shown) [Example 16, 4-(2-methyl-5-(2,2,2-trifluoroethylcarbamoyl)piperidine-1-amino)-1H-7-azaindole-5-carboxamide]				
21.4 nM	24 nM	353 nM	NC(=O)c1cnc2[nH]ccc2c1NN1CCC(C(=O)NCC(F)(F)F)CC1 [Example 19, 4-(4-(2,2,2-trifluoroethylcarbamoyl)piperidine-1-amino)-1H-7-azaindole-5-carboxamide]				
103 nM	35.9 nM	137 nM	CNC(=O)c1cnc2[nH]ccc2c1NN1CCC[C@H](C(=O)NCC(F)F)C1 [Example 22, (S)-4-((3-((2,2-difluoroethyl)carbamoyl)piperidin-1-yl)amino)-N-methyl-1H-7-pyrrolo[2,3-b]pyridine-5-carboxamide]				
6.54 nM	0.64 nM	18.8 nM	CNC(=O)c1cnc2[nH]ccc2c1NN1CCC[C@H](C(=O)NCC(F)(F)F)C1 [Example 23]			higher activity in inhibiting the JAK1 kinase than the positive drug control Tofacitinib	
68.9 nM	19.7 nM	126 nM	CN(c1ccnc2[nH]ccc12)N1CCCC(C(=O)NCC#N)C1 (stereo not shown) [WO2016116025 WX14, reference compound]				
104 nM	17.3 nM	297 nM	CN(c1ccnc2[nH]ccc12)N1CCCC(C(=O)NCC(F)(F)F)C1 (stereo not shown) [WO2016116025 WX15, reference compound]				

Second part, the molecule before the results:

Structure (SMILES)	IC50 (JAK3)	IC50 (JAK1)	IC50 (JAK2)	colon weight-length ratio ([1]; colon weight (g)/length (cm) ratio×100, model group G2 14.6±5.1)	rat colon ulcer area ([1]; model group G2 1.54±2.00)	activity in inhibiting the JAK1 kinase compared with Tofacitinib (in words) (JAK1)	DAI score on day 8 [2]
CC[C@@H]1CN(C(=O)NCC(F)(F)F)C[C@@H]1c1cnc2cnc3[nH]ccc3n12 [ABT494, reference compound]				13.4±5.2	1.37±1.72		
NC(=O)c1cnc2[nH]ccc2c1NN1CCC[C@@H](C(=O)NCC(F)F)C1 [Example 4, (R)-4-(3-(2,2-difluoroethylcarbamoyl)piperidine-1-amino)-1H-7-azaindole-5-carboxamide]	224 nM	34.3 nM	522 nM				
NC(=O)c1cnc2[nH]ccc2c1NN1CCC[C@H](C(=O)NC2CC2)C1 [Example 6, (S)-4-(3-(cyclopropylcarbamoyl)piperidine-1-amino)-1H-7-azaindole-5-carboxamide]	21.7 nM	1.06 nM	44.6 nM				
CCOC(=O)[C@H]1CCCN(Nc2c(C(N)=O)cnc3[nH]ccc23)C1 [Example 8]	8.67 nM	2.03 nM	46.5 nM				
NC(=O)c1cnc2[nH]ccc2c1NN1CCC(C(=O)NCC(F)(F)F)C1 (stereo not shown) [Example 9]	7.85 nM	0.66 nM	42.5 nM			higher activity in inhibiting the JAK1 kinase than the positive drug control Tofacitinib	
NC(=O)c1cnc2[nH]ccc2c1NN1C2CCC1COC2 [Example 10, 4-((3-oxa-8-azabicyclo[3.2.1]octan-8-yl)amino)-1H-7-azaindole-5-carboxamide]		51.9 nM					
NC(=O)c1cnc2[nH]ccc2c1NN1[C@@H]2CC[C@H]1C[C@@H](O)C2 [Example 11, 4-((3-hydroxyl-8-azabicyclo[3.2.1]octan-8-yl)amino)-1H-7-azaindole-5-carboxamide]	15.5 nM	11.7 nM	211 nM				
NC(=O)c1cnc2[nH]ccc2c1NN1CCC2(CCNC2=O)CC1 [Example 14, 4-(1-keto-2,8-diazaspiro[4.5]decane-8-amino)-1H-7-azaindole-5-carboxamide]		78.3 nM					
Nc1ccc(O)c(C(=O)O)c1 [mesalazine, reference compound]							3.5
